Read-outs that look alike come from different tables or passages of the source.

Assay [1] has as its target T1, GlyT2 (Homo sapiens, UniProt Q9Y345).
T1 sequence (Q9Y345 1-797): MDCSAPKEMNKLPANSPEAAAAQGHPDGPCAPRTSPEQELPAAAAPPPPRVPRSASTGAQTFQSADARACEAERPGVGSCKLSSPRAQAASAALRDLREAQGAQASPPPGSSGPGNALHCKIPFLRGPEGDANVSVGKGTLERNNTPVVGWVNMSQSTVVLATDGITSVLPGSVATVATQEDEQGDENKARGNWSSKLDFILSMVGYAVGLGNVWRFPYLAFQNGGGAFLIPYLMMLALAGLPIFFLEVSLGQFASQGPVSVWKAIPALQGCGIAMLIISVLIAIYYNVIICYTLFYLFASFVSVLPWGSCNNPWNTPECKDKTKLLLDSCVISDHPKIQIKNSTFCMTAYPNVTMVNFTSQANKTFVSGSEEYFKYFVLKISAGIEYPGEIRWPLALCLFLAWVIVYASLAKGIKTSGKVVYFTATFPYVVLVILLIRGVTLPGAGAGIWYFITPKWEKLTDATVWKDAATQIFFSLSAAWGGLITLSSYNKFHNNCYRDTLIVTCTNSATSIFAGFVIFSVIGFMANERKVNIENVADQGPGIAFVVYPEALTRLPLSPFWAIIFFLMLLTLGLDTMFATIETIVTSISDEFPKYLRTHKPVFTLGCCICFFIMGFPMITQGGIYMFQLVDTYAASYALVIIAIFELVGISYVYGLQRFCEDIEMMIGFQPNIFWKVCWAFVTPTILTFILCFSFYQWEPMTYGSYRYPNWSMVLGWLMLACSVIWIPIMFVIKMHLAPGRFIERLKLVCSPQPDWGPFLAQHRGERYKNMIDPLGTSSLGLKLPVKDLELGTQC
As to the kind of experiment: Affinity for GlyT1 compared with GlyT2 (statement, no method given). The following applies: qualitative statement on the parent compound; no value given.

In assay [2] the target is T2, GlyT1 transporter (Homo sapiens, UniProt P48067).
T2 construct: expressed in transfected cells
T2 sequence (P48067 1-706): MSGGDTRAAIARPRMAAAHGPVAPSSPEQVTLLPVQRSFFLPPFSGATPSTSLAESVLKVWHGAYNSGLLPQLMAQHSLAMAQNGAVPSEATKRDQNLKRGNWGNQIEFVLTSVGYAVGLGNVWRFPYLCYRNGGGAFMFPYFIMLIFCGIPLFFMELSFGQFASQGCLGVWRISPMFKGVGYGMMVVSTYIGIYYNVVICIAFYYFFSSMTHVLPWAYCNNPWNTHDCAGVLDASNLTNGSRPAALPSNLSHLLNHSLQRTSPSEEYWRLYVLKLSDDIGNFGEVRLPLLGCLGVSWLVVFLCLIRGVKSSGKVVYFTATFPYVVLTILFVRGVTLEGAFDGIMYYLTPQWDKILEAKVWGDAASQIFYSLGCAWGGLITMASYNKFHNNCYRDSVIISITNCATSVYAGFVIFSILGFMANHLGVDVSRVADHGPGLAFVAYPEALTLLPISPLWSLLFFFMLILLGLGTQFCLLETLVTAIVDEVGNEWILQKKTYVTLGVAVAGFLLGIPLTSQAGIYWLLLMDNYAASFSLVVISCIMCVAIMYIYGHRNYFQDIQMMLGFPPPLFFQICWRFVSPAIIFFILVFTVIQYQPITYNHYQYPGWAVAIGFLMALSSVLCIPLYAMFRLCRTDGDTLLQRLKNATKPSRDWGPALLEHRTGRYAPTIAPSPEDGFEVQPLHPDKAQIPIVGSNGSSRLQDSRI
As to the kind of experiment: GlyT1 transporter [3H]-glycine uptake SPA assay in HEK293 cells. Format: cell-based. The conditions noted are these: for IC50: HEK293 cells expressing the Glycine (Type 1) transporter. As for the experimental part:
The affinities of the compounds of this invention for the GlyT1 transporter were determined by the following assay:
HEK293 cells expressing the Glycine (Type 1) transporter were grown in cell culture medium [DMEM/NUT mix F12 containing 2 mM L-Glutamine, 0.8 mg/mL G418 and 10% heat inactivated fetal calf serum] at 37° C. and 5% CO2. Cells grown to 70-80% confluency in T175 flasks were harvested and frozen. For the assay, cells were defrosted and resuspended at 1.32×10^6 cells/mL in assay buffer [140 mM NaCl, 5.4 mM KCl, 1.8 mM CaCl2, 0.8 mM MgSO4, 20 mM HEPES, 5 mM glucose and 5 mM alanine, pH 7.4]. Compounds were serially diluted either 3-fold or 4-fold in DMSO from a top concentration of 2.5 mM with each compound giving a 11 data point dose-response. 100 nL of compound at each concentration was added to the assay plate. An equal volume of Leadseeker™ WGA SPA beads (12.5 mg/ml suspended in assay buffer) was added to the cell suspension (1.32×106) and 5 uL of the cell/bead suspension transferred to each well of a LV384-well white solid bottom plate (3300 cells/well) containing 100 nL of test compounds. Substrate (5 uL) was added to each well [1:100 dilution of [3H]-glycine stock in assay buffer containing 2.5 uM glycine). Final DMSO concentration was 1% v/v. Data was collected using a Perkin Elmer Viewlux™. pIC50 values were determined using ActivityBase™.

As to `COc1cc(C(F)(F)F)cc(C(F)(F)F)c1C(=O)NC(c1ccccc1)C(C)(C)N1CCCC1` (stereo not shown) [2-(methyloxy)-N-[2-methyl-1-phenyl-2-(1-pyrrolidinyl)propyl]-4,6-bis(trifluoromethyl)benzamide], the “affinity for GlyT1 relative to GlyT2 (selectivity, result in words)” value in assay [1] is recorded as “greater affinity for GlyT1 than for GlyT2”. In addition, the “inhibition of the glycine transporter type GlyT1 (result in words)” value in assay [2] (qualitative statement on the parent compound, no value given) is reported as “inhibitor of the glycine transporter type GlyT1”.

On to `COc1cc(C(F)(F)F)cc(C(F)(F)F)c1C(=O)N[C@H](c1ccccc1)C(C)(C)N1CCCC1` [R-(−)-2-(Methyloxy)-N-[2-methyl-1-phenyl-2-(1-pyrrolidinyl)propyl]-4,6-bis(trifluoromethyl)benzamide 1,5-heminapadisylate], for which the IC50 in assay [2] (n=1, read-out: pIC50 at the GlyT1 transporter (converted)) is 5.01 nM.

With `COc1cc(C(F)(F)F)cc(C(F)(F)F)c1C(=O)N[C@H](c1ccccc1)C(C)(C)N1CCCC1` [R-(−)-2-(Methyloxy)-N-[2-methyl-1-phenyl-2-(1-pyrrolidinyl)propyl]-4,6-bis(trifluoromethyl)benzamide monosuccinate], the IC50 in assay [2] (n=5, read-out: average pIC50 at the GlyT1 transporter (converted)) was 15.8 nM.

Source of the values: patent publication US20080070973A1, “Compounds having activity at the GlyT1 transporter” (priority 2006, published 2008).
